Reference: patent publication US10793563B2, “GCN2 inhibitors and uses thereof” (Merck Patent GmbH, priority 2018, dated 2020)
Where two headings read alike, the source gives them in different places.

Assays:
[1] = biological target: intracellular GCN2 (phosphorylation of the GCN2 substrate eIF2α) (Homo sapiens (Human), UniProt Q9P2K8); assay: GCN2 Cellular Inhibition Assay (AlphaScreen SureFire P-eIF2α Ser51, borrelidin-treated U2OS cells); format: cell-based; conditions: 10 μM borrelidin, 1 h, phosphorylated eIF2α Ser51, read-out: GCN2 Biomarker (IC50)
Summary of the method: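 U2OS cells adhered overnight, then given compound (top 40 μM, 4-fold serial dilutions) plus 10 μM borrelidin for 1 h at 37 °C. Lysates assayed for eIF2α phospho-Ser51 by AlphaScreen SureFire; % inhibition versus borrelidin-only wells.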

[2] = tested on: primary human pan T-cells; assay: Human IL-2 Assay for GCN2 Inhibition (IL-2 secretion from T cells in low amino acid condition); format: cell-based; conditions: IL-2 secretion from human T cells stimulated with anti-CD3/CD28 in low amino acid condition, ELISA; for EC50: read-out: IL2/T-cell EC50
From the text: Tumor microenvironment is profoundly immuno-suppressive. This may be attributed to the depletion of amino acids (like arginine and tryptophan) which triggers the activation of GCN2 in immune cells, including T cell and myeloid cells. In T cells, activation of GCN2 leads to reduce effector functions of CD8 T cells and induction and/or maintenance of immuno-suppressive T-regs. Inhibition of that immuno-suppressive response by GCN2 inhibitors enables an anti-cancer immune response by activating effector T-cells. Herein we describe an in-vitro system we established using human T-cells stimulated in low amino acid condition in order to engage the GCN2 biology. The method described involves the modulation of IL-2 levels secreted by human T cells in responses to the GCN2 inhibitors disclosed herein.
Amino acid-free RPMI was reconstituted with all but one of the amino acids found in standard RMPI (e.g. Arginine, Tryptophan), 10% charcoal-stripped fetal bovine serum, 100 Units/mL penicillin and 0.1 mg/mL streptomycin. Primary human pan T-cells were isolated using Pan T Cell Isolation Kit, human (MACS Miltenyi biotech Cat # Order no. 130-096-535) from apheresis cones and 5×104 pan T-cells per well. The purified T cells are seeded in Nunc™ 96-Well Polystyrene Round Bottom Microwell Plates (the cells are rested in No TRP media in a 15 ml falcon tube in the incubator for 30-45 minutes while titrations for tryptophan and the GCN2 inhibitor compound are made) A plate matrix was developed to titrate both a GCN2 inhibitor and the amino acid of interest ranging from “No Amino Acid” condition, up to the concentration found in the regular RPMI media (20 μM for TRP and 950 μM for Arginine). The cells were incubated for 30 min at 37° C. with the GCN2 inhibitor and then stimulated with 5×104 anti-CD3/CD28 Dynabeads® per well. After 96 hours of incubation the IL-2 level in the supernatant were measured using ELISA (R&D systems Cat # DY202 (Human IL-2 DuoSet ELISA). Data were plotted in GraphPad Prism software and EC50 is calculated.

[3] = biological target: GCN2 kinase (Homo sapiens (Human), UniProt Q9P2K8); assay: GCN2 Enzyme Inhibition Assay (Transcreener ADP2 fluorescence polarization); format: biochemical; conditions: 280 μM ATP, 200 μM (RS)7 peptide, 4 nM GCN2, 25° C.
Summary of the method: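 Transcreener ADP2 fluorescence polarization detection of ADP from 4 nM GCN2 with (RS)7 substrate in 25 mM Tris-HCl pH 7.5, 50 mM NaCl, 10 mM MgCl2, 1 mM DTT. Compound pre-incubated with enzyme 10 min at 25 °C; reaction started by ATP, run 1 h at 25 °C. IC50 and Ki(app) by tight-binding fit.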

Sequence of intracellular GCN2 (phosphorylation of the GCN2 substrate eIF2α) (Q9P2K8 whole entry): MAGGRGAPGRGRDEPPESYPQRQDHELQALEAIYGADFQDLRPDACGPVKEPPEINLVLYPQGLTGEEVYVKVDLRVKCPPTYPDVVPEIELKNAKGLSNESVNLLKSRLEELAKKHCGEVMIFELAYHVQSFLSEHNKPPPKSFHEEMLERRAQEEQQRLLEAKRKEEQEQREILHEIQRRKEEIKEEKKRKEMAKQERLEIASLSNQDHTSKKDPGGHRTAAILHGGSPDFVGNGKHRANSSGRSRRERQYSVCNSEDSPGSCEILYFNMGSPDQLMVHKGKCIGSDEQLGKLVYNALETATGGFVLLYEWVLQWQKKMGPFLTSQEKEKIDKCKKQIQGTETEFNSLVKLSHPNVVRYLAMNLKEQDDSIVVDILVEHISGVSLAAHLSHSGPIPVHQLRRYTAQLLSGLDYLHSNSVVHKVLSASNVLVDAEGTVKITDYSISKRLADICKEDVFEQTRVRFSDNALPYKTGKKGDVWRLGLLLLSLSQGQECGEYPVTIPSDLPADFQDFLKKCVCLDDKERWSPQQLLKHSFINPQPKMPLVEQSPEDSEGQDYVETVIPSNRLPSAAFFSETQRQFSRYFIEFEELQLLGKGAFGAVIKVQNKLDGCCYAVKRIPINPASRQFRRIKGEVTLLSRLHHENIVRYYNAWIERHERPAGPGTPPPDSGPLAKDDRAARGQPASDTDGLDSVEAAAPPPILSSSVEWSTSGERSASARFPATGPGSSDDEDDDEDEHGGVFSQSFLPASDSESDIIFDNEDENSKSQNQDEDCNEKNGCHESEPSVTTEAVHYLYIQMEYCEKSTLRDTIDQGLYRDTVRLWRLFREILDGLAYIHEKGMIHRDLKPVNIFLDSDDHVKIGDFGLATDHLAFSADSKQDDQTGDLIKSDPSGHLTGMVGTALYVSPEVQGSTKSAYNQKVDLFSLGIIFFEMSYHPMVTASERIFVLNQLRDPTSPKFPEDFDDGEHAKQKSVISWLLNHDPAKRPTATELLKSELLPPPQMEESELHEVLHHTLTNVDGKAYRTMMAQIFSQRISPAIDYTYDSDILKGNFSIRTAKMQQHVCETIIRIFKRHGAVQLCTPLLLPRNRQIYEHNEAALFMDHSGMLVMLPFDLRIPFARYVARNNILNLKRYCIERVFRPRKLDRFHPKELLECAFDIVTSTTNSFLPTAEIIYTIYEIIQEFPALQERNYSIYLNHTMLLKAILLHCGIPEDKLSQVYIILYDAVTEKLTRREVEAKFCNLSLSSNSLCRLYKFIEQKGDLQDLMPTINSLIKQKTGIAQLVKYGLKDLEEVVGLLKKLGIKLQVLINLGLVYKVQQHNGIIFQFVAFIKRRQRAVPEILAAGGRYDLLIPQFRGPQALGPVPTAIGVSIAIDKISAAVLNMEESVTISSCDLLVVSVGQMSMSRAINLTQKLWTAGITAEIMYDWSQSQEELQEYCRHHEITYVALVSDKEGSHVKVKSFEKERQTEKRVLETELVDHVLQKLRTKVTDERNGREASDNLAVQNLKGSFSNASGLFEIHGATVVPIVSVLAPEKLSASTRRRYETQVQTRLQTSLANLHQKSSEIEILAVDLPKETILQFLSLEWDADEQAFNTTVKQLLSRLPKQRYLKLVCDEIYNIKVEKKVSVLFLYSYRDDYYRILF
Sequence of GCN2 kinase (Q9P2K8 whole entry): as above

SMILES | IC50 [1] [nM] | EC50 ([2]; Homo sapiens, T-cell, 96 h) [nM] | IC50 [3] [nM] | IL2/T-cell EC50 ([2]; 96 hours) | Ki ([3]; Ki(app)) [nM] | EC50 ([2]; 96 hours) [nM]
C[C@@H]1C[C@H](N=S(C)(C)=O)CN(c2nccc(-c3cnc4ccc(C(F)F)cn34)n2)C1 [I-499, (((3 S,5R)-1-(4-(6-(difluoromethyl)imidazo[1,2-a]pyridin-3-yl)pyrimidin-2-yl)-5-methylpiperidin-3-yl)imino)dimethyl-λ6-sulfanone] | < 500 | > 500 | < 10 | – | – | –
FC(F)(F)c1ccc2ncc(-c3nccc(N4CCN(C5CC6(COC6)C5)[C@H](c5cn[nH]c5)C4)n3)n2c1 [I-504, (R)-3-(4-(3-(1H-pyrazol-4-yl)-4-(2-oxaspiro[3.3]heptan-6-yl)piperazin-1-yl)pyrimidin-2-yl)-6-(trifluoromethyl)imidazo[1,2-a]pyridine] | < 500 | 100 to 500 | < 10 | – | – | –
NC(=O)[C@H]1CN(c2ccnc(-c3cnc4ccc(C(F)(F)F)cn34)n2)CCN1C1CC1 [I-323, (R)-1-cyclopropyl-4-(2-(6-(trifluoromethyl)imidazo[1,2-a]pyridin-3-yl)pyrimidin-4-yl)piperazine-2-carboxamide] | 500 to 5000 | > 500 | < 10 | – | – | –
C[C@H]1C[C@@H](N=S(C)(C)=O)CN(c2ccnc(-c3cnc4ccc(C(F)(F)F)cn34)n2)C1 (stereo in doubt) [I-123, Dimethyl(((3R,5S)-5-methyl-1-(2-(6-(trifluoromethyl)imidazo[1,2-a]pyridin-3-yl)pyrimidin-4-yl)piperidin-3-yl)imino)-λ6-sulfanone] | < 500 | > 500 | 10 to 100 | − (“−” for not active) | – | –
C[C@H]1C[C@@H](c2cn[nH]c2)CN(c2nccc(-c3cnc4ccc(C(F)(F)F)cn34)n2)C1 [I-137, 3-(2-((3S,5S)-3-Methyl-5-(1H-pyrazol-4-yl)piperidin-1-yl)pyrimidin-4-yl)-6-(trifluoromethyl)imidazo[1,2-a]pyridine] | < 500 | 100 to 500 | – | – | – | –
C[C@H]1CN(c2nccc(-c3cnc4ccc(C(F)(F)F)cn34)n2)[C@@H](C)C(c2cn[nH]c2)N1 (stereo partly drawn) [I-170, 3-(2-((2S,5S)-2,5-dimethyl-3-(1H-pyrazol-4-yl)piperazin-1-yl)pyrimidin-4-yl)-6-(trifluoromethyl)imidazo[1,2-a]pyridine] | < 500 | 100 to 500 | 10 to 100 | – | – | –
C[C@H]1[C@H](c2cn[nH]c2)N(CC2(C)COC2)CCN1c1ccnc(-c2cnc3ccc(C(F)(F)F)cn23)n1 [I-482, 3-(4-((2 S,3 S)-2-methyl-4-((3-methyloxetan-3-yl)methyl)-3-(1H-pyrazol-4-yl)piperazin-1-yl)pyrimidin-2-yl)-6-(trifluoromethyl)imidazo[1,2-a]pyridine] | – | > 500 | 10 to 100 | – | – | –
Cc1[nH]ncc1[C@@H]1CN(c2nccc(-c3cnc4ccc(C(F)(F)F)cn34)n2)C[C@H](C)O1 [I-116] | 500 to 5000 | < 100 | – | – | – | –
C[C@@H]1C[C@H](c2cn[nH]c2)CN(c2nccc(-c3cnc4ccc(C(F)(F)F)cn34)n2)C1 [I-136, 3-(2-((3R,5R)-3-Methyl-5-(1H-pyrazol-4-yl)piperidin-1-yl)pyrimidin-4-yl)-6-(trifluoromethyl)imidazo[1,2-a]pyridine] | < 500 | < 100 | – | – | – | 100 to 500

The next lines start with the values.

IC50 [1] [nM] | EC50 ([2]; Homo sapiens, T-cell, 96 h) [nM] | IC50 [3] [nM] | IL2/T-cell EC50 ([2]; 96 hours) | Ki ([3]; Ki(app)) [nM] | EC50 ([2]; 96 hours) [nM] | SMILES
< 500 | < 100 | < 10 | – | – | – | Cc1[nH]ncc1[C@H]1[C@@H](C)N(c2ccnc(-c3cnc4ccc(C(F)(F)F)cn34)n2)CCN1C1COC1 [I-366]
< 500 | > 500 | 10 to 100 | – | – | – | Cc1n[nH]nc1[C@@H]1C[C@H](C)CN(c2ccnc(-c3cnc4ccc(C(F)(F)F)cn34)n2)C1 [I-409, 3-(4-((3S,5R)-3-methyl-5-(5-methyl-2H-1,2,3-triazol-4-yl)piperidin-1-yl)pyrimidin-2-yl)-6-(trifluoromethyl)imidazo[1,2-a]pyridine]
< 500 | < 100 | < 10 | – | – | – | C[C@H]1[C@@H](c2cn[nH]c2)N(CC2(C)COC2)CCN1c1ccnc(-c2cnc3ccc(C(F)(F)F)cn23)n1 [I-481, 3-(4-((2 S,3R)-2-methyl-4-((3-methyloxetan-3-yl)methyl)-3-(1H-pyrazol-4-yl)piperazin-1-yl)pyrimidin-2-yl)-6-(trifluoromethyl)imidazo[1,2-a]pyridine]
< 500 | > 500 | 10 to 100 | – | – | – | C[C@H]1C[C@@H](N=S(C)(C)=O)CN(c2ccnc(-c3cnc4ccc(Cl)cn34)n2)C1 (stereo in doubt) [I-128, (((3R,5S)-1-(2-(6-chloroimidazo[1,2-a]pyridin-3-yl)pyrimidin-4-yl)-5-methylpiperidin-3-yl)imino)dimethyl-λ6-sulfanone]
< 500 | – | < 10 | − (“−” for not active) | – | – | Cc1[nH]ncc1[C@@H]1C[C@H](O)CN(c2ccnc(-c3cnc4ccc(C(F)(F)F)cn34)n2)C1 [I-314, (3 S,5S)-5-(3-Methyl-1H-pyrazol-4-yl)-1-[2-(6-trifluoromethyl-imidazo[1,2-a]pyridin-3-yl)-pyrimidin-4-yl]-piperidin-3-ol]
< 500 | < 100 | < 10 | – | < 10 | – | NC(=O)[C@H]1CCCN(c2ccnc(-c3cnc4ccc(C(F)(F)F)cn34)n2)C1 [I-154, (S)-1-[2-(6-Trifluoromethyl-imidazo[1,2-a]pyridin-3-yl)-pyrimidin-4-yl]-piperidine-3-carboxylic acid amide]
< 500 | < 100 | < 10 | – | – | – | C[C@H]1CN(c2nccc(-c3cnc4ccc(Cl)cn34)n2)C[C@@H](c2cn[nH]c2)O1 [I-247, 6-Chloro-3-{2-[(2S,6R)-2-methyl-6-(1H-pyrazol-4-yl)-morpholin-4-yl]-pyrimidin-4-yl}-imidazo[1,2-a]pyridine]
< 500 | 100 to 500 | < 10 | – | – | – | C[C@@H]1CN(c2nccc(-c3cnc4ccc(C(F)(F)F)cn34)n2)C[C@@H](c2cn[nH]c2)O1 [I-135, (2R,6R)-2-methyl-6-(1H-pyrazol-4-yl)-4-(4-(6-(trifluoromethyl)imidazo[1,2-a]pyridin-3-yl)pyrimidin-2-yl)morpholine]
< 500 | 100 to 500 | < 10 | – | – | – | Cc1n[nH]cc1[C@@H]1CN(c2ccnc(-c3cnc4cc(Cl)c(C(F)(F)F)cn34)n2)C[C@H](C)O1 [I-359, (2S,6R)-4-(2-(7-chloro-6-(trifluoromethyl)imidazo[1,2-a]pyridin-3-yl)pyrimidin-4-yl)-2-methyl-6-(3-methyl-1H-pyrazol-4-yl)morpholine]
< 500 | < 100 | < 10 | – | – | – | C[C@H]1CN(c2ccnc(-c3cnc4ccc(Cl)cn34)n2)C[C@@H](c2cn[nH]c2F)O1 [I-176, (2R,6S)-4-(2-(6-chloroimidazo[1,2-a]pyridin-3-yl)pyrimidin-4-yl)-2-(5-fluoro-1H-pyrazol-4-yl)-6-methylmorpholine]
< 500 | 100 to 500 | < 10 | – | – | < 100 | Cc1[nH]ncc1[C@@H]1CN(c2ccnc(-c3cnc4ccc(C(F)(F)F)cn34)n2)C[C@H](C)O1 [I-124, 3-{4-[(2S,6R)-2-Methyl-6-(3-methyl-1H-pyrazol-4-yl)-morpholin-4-yl]-pyrimidin-2-yl}-6-trifluoromethyl-imidazo[1,2-a]pyridine]
